{"source": "patent US6794489B2", "about": "“Compositions and methods for treatment of sexual dysfunction” (Palatin Technologies, Inc., priority 1999, dated 2004)", "key": {"[1]": {"assay": "Representative Profile in Monkeys Intravenously Delivered", "source_text": "Table printed on a drawing sheet, FIG. 2\nTitle: Representative Profile in Monkeys Intravenously Delivered"}, "[2]": {"assay": "Profiles in Monkeys Intranasally Delivered", "source_text": "Table printed on a drawing sheet, FIG. 3\nTitle: Profiles in Monkeys Intranasally Delivered\nFirst reader's note: Columns 2001, 2002 and 2003 are individual monkeys, and the last two columns are their mean and SEM; the substance name is taken from the y-axis label, printed 'Compopund 1'."}, "Sprague Dawley rats [3]": {"test_system": "Sprague Dawley rats", "assay": "Induction of penile erection by intranasal administration", "type": "in vivo, rat", "details": "for % Rats with Penile Erection / Number of Erections/Rat/30 Minutes: intranasal", "procedure": "In another series of experiments, a dosing study was conducted in rats by nasal administration of from 15 μg per kg of body weight to 1500 μg per kg of body weight, using Nasal Formulation 1. Based on penile erectile response behavior, the peptide was efficacious at all dose amounts administered, and particularly from 25 μg/kg to 75 μg/kg, with pharacologic effect observed over the range from 15 μg/kg to 1500 μg/kg. […]"}, "Sprague Dawley rats [4]": {"test_system": "Sprague Dawley rats", "assay": "Inhibition of Compound 1-induced penile erection by melanocortin antagonist", "type": "in vivo, rat", "details": "25 or 50 μg/kg nasal in Nasal Formulation 1, control groups"}, "ferrets": {"test_system": "ferrets", "assay": "Ferret emesis study", "type": "in vivo", "details": "animals out of six", "source_text": "Ferrets are a recognized model for emetic studies. The vehicle for both intravenous and intranasal administration was saline. The positive control was cisplatin, known to induce vomiting in ferrets. The data is described as the number of animals out of a group of six showing signs of vomiting."}, "[5]": {"assay": "Pharmacokinetics in rats following IV administration", "type": "in vivo, rat", "details": "intravenous 100 μg/kg, bioassay"}, "Female Long-Evans rats [6]": {"test_system": "Female Long-Evans rats", "assay": "Female sexual response, bilevel chambers", "type": "in vivo, rat", "details": "200 μg/kg subcutaneous", "procedure": "Female Long-Evans rats (200-250 g) were house in groups of 2 to 4 depending on size in plastic cages in a colony room maintained on a reversed 12:12 hour light/dark cycle at approximately 21° C. with food and water ad libitum. The rats were ovariectomized bilaterally via lumbar incisions one week prior to preliminary tests of sexual behavior. Intact Long-Evans male rats served as stimulus males, and were sexual vigorous, initiating copulatory activity with females within 15 seconds of being placed into bilevel chambers containing female rats. Following preliminary tests of sexual behavior, females were administered subcutaneous injections of estradiol benzoate, 10 μg in 0.1 mL of sesame oil, forty-eight hours prior to testing, and progesterone, 500 μg in 0.1 mL of sesame oil, four hours prior to testing. Administration of estradiol benzoate and progesterone induced full sexual receptivity in the female rats. Female rats were placed in bilevel chambers five minutes prior to the introduction of a sexual vigorous male. […] Tests were videotaped and score subsequently for appetitive level changing during the five minute period prior to the introduction of the male, lordosis quotients and reflex magnitudes, incidents of solicitation (head-wise orientation and runaway), hops and darts, pacing (level changes per mount), female mounts and defensive responses. […]"}, "Female Long-Evans rats [7]": {"test_system": "Female Long-Evans rats", "assay": "Female sexual response, unilevel pacing chambers", "type": "in vivo, rat", "details": "200 μg/kg subcutaneous", "source_text": "Tests were videotaped and scored as in Example 13, with pacing defined as number of exits from and returns to the side with the male; and exist and return latencies following mounts, intromissions or ejaculations. FIGS. 8A, 8B, 8C and 8D show the results."}, "[8]": {"assay": "PROFILE IN RATS INTRAVENOUSLY ADMINISTERED", "source_text": "Table printed on a drawing sheet, FIG. 1\nTitle: PROFILE IN RATS INTRAVENOUSLY ADMINISTERED\nSection band inside the table: i.v."}, "Sprague Dawley rats [9]": {"test_system": "Sprague Dawley rats", "assay": "Induction of penile erection by intravenous injection", "details": "for Dose resulting in equivalent penile response by intravenous injection / Efficacious dose (penile erection in 100% of animals): rats; for Efficacious dose (penile erection in 100% of animals): intravenous injection"}, "[10]": {"test_system": "men with psychogenic erectile dysfunction", "details": "subcutaneous, 0.025 to 0.157 mg/kg, cited from earlier work"}}, "data": [{"compound": "CCCC[C@H](NC(C)=O)C(=O)N[C@H]1CC(=O)NCCCC[C@@H](C(=O)O)NC(=O)[C@H](Cc2c[nH]c3ccccc23)NC(=O)[C@H](CCCNC(=N)N)NC(=O)[C@@H](Cc2ccccc2)NC(=O)[C@H](Cc2c[nH]cn2)NC1=O", "note": "[Compopund 1]", "values": [{"measurement": "AUC", "setting": "[1]", "value": 3730.0, "unit": "ng·min/mL"}, {"measurement": "Cmax", "setting": "[1]", "value": 1149.0, "unit": "ng/mL"}, {"measurement": "Tmax", "setting": "[1]", "value": 0.0, "unit": "min"}, {"measurement": "%Bioavailability", "setting": "[2]", "value": 0.73, "unit": "%"}, {"measurement": "AUC", "setting": "[2]", "value": 27.16, "unit": "ng·min/mL"}, {"measurement": "Cmax", "setting": "[2]", "value": 0.38, "unit": "ng/mL"}, {"measurement": "Tmax", "setting": "[2]", "value": 50.00, "unit": "min"}]}, {"compound": "CCCCC(NC(C)=O)C(=O)NC1CC(=O)NCCCCC(C(=O)O)NC(=O)C(Cc2c[nH]c3ccccc23)NC(=O)C(CCCNC(=N)N)NC(=O)C(Cc2ccccc2)NC(=O)C(Cc2c[nH]cn2)NC1=O", "note": "[Compound 1, Ac-Nle-cyclo(-Asp-His-D-Phe-Arg-Trp-Lys)-OH]", "values": [{"measurement": "% Rats with Penile Erection", "setting": "Sprague Dawley rats [3]; 15 μg/kg", "value": 50, "unit": "%"}, {"measurement": "Number of Erections/Rat/30 Minutes", "setting": "Sprague Dawley rats [3]; 15 μg/kg", "value": 0.5}, {"measurement": "% Rats with Penile Erection", "setting": "Sprague Dawley rats [3]; 25 μg/kg", "value": 100, "unit": "%"}, {"measurement": "Number of Erections/Rat/30 Minutes", "setting": "Sprague Dawley rats [3]; 25 μg/kg", "value": 2.0}, {"measurement": "% Rats with Penile Erection", "setting": "Sprague Dawley rats [3]; 37 μg/kg", "value": 100, "unit": "%"}, {"measurement": "Number of Erections/Rat/30 Minutes", "setting": "Sprague Dawley rats [3]; 37 μg/kg", "value": 2.0}, {"measurement": "% Rats with Penile Erection", "setting": "Sprague Dawley rats [3]; 50 μg/kg", "value": 100, "unit": "%"}, {"measurement": "Number of Erections/Rat/30 Minutes", "setting": "Sprague Dawley rats [3]; 50 μg/kg", "value": 2.0}, {"measurement": "% Rats with Penile Erection", "setting": "Sprague Dawley rats [3]; 75 μg/kg", "value": 100, "unit": "%"}, {"measurement": "Number of Erections/Rat/30 Minutes", "setting": "Sprague Dawley rats [3]; 75 μg/kg", "value": 2.5}, {"measurement": "% Rats with Penile Erection", "setting": "Sprague Dawley rats [3]; 500 μg/kg", "value": 100, "unit": "%"}, {"measurement": "Number of Erections/Rat/30 Minutes", "setting": "Sprague Dawley rats [3]; 500 μg/kg", "value": 1.5}, {"measurement": "% Rats with Penile Erection", "setting": "Sprague Dawley rats [3]; 1000 μg/kg", "value": 100, "unit": "%"}, {"measurement": "Number of Erections/Rat/30 Minutes", "setting": "Sprague Dawley rats [3]; 1000 μg/kg", "value": 1.5}, {"measurement": "% Rats with Penile Erection", "setting": "Sprague Dawley rats [3]; 1500 μg/kg", "value": 50, "unit": "%"}, {"measurement": "Number of Erections/Rat/30 Minutes", "setting": "Sprague Dawley rats [3]; 1500 μg/kg", "value": 0.5}, {"measurement": "Rats with observed erections, without pre-administration of SHU9119", "setting": "Sprague Dawley rats [4]", "value": 100, "unit": "%"}, {"measurement": "Signs of vomiting (proportions)", "setting": "ferrets; 10 μg/kg IV", "value": "0/6"}, {"measurement": "Signs of vomiting (proportions)", "setting": "ferrets; 30 μg/kg IV", "value": "6/6"}, {"measurement": "Signs of vomiting (proportions)", "setting": "ferrets; 100 μg/kg IN", "value": "0/6"}, {"measurement": "Signs of vomiting (proportions)", "setting": "ferrets; 100 μg/kg IV", "value": "6/6"}, {"measurement": "Signs of vomiting (proportions)", "setting": "ferrets; 300 μg/kg IN", "value": "1/6"}, {"measurement": "Signs of vomiting (proportions)", "setting": "ferrets; 500 μg/kg IN", "value": "1/6"}, {"measurement": "Pharmacokinetic profile in plasma", "setting": "[5]", "value": "bi-phasic"}, {"measurement": "Rates of appetitive level changing, pacing, lordosis, female mounts or rejection responses", "setting": "Female Long-Evans rats [6]", "value": "without affecting"}, {"measurement": "Number of solicitations", "setting": "Female Long-Evans rats [6]; fully and partially primed female rats", "value": "increased the number of solicitations significantly"}, {"measurement": "Ejaculation return latencies", "setting": "Female Long-Evans rats [7]", "value": "increase"}, {"measurement": "Lordosis or defensive responding", "setting": "Female Long-Evans rats [7]", "value": "no effect"}, {"measurement": "Number of exits or returns made by the females", "setting": "Female Long-Evans rats [7]", "value": "no significant effect"}, {"measurement": "Number of solicitations, hops and darts, and female mounts compared to controls", "setting": "Female Long-Evans rats [7]; fully primed", "value": "increased the number of solicitations, hops and darts, and female mounts significantly"}, {"measurement": "α-phase", "setting": "[8]", "value": 5, "unit": "min"}, {"measurement": "β-phase", "setting": "[8]", "value": 25, "unit": "min"}, {"measurement": "% Rats with Penile Erection", "setting": "Sprague Dawley rats [9]; intravenous, 0.5 μg/kg", "value": 50, "unit": "%"}, {"measurement": "Number of Erections/Rat/30 Minutes", "setting": "Sprague Dawley rats [9]; intravenous, 0.5 μg/kg", "value": 0.5}, {"measurement": "% Rats with Penile Erection", "setting": "Sprague Dawley rats [9]; intravenous, 1.0 μg/kg", "value": 100, "unit": "%"}, {"measurement": "Number of Erections/Rat/30 Minutes", "setting": "Sprague Dawley rats [9]; intravenous, 1.0 μg/kg", "value": 1.0}, {"measurement": "% Rats with Penile Erection", "setting": "Sprague Dawley rats [9]; intravenous, 2.0 μg/kg", "value": 100, "unit": "%"}, {"measurement": "Number of Erections/Rat/30 Minutes", "setting": "Sprague Dawley rats [9]; intravenous, 2.0 μg/kg", "value": 2.0}, {"measurement": "Rats having multiple erections", "setting": "Sprague Dawley rats [9]; intravenous, 2 μg/kg, 30 minutes observation period", "value": "approximately 50%"}, {"measurement": "% Rats with Penile Erection", "setting": "Sprague Dawley rats [9]; intravenous, 5.0 μg/kg", "value": 100, "unit": "%"}, {"measurement": "Number of Erections/Rat/30 Minutes", "setting": "Sprague Dawley rats [9]; intravenous, 5.0 μg/kg", "value": 1.8}, {"measurement": "% Rats with Penile Erection", "setting": "Sprague Dawley rats [9]; intravenous, 10.0 μg/kg", "value": 100, "unit": "%"}, {"measurement": "Number of Erections/Rat/30 Minutes", "setting": "Sprague Dawley rats [9]; intravenous, 10.0 μg/kg", "value": 2.5}, {"measurement": "Dose resulting in equivalent penile response by intravenous injection", "setting": "Sprague Dawley rats [9]", "value": "2 μg/kg of body weight"}, {"measurement": "Efficacious dose (penile erection in 100% of animals)", "setting": "Sprague Dawley rats [9]", "value": 1, "unit": "µg/kg"}]}, {"compound": "Melanotan-II [reference compound]", "values": [{"measurement": "% Rats with Penile Erection", "setting": "Sprague Dawley rats [3]; 100 μg/kg", "value": 25, "unit": "%"}, {"measurement": "Number of Erections/Rat/30 Minutes", "setting": "Sprague Dawley rats [3]; 100 μg/kg", "value": 0.25}, {"measurement": "% Rats with Penile Erection", "setting": "Sprague Dawley rats [3]; 500 μg/kg", "value": 100, "unit": "%"}, {"measurement": "Number of Erections/Rat/30 Minutes", "setting": "Sprague Dawley rats [3]; 500 μg/kg", "value": 1.0}, {"measurement": "Period of the penile erection response after nasal administration", "setting": "Sprague Dawley rats [3]; rats, 30 minute observation in ten-minute periods", "value": "2nd and 3rd ten-minute period"}, {"measurement": "Treated men developing clinically apparent erections", "setting": "[10]", "value": "8 of 10"}, {"measurement": "Mean duration of tip rigidity greater than 80%", "setting": "[10]; placebo 3.0 minutes", "value": 38, "unit": "min"}, {"measurement": "% Rats with Penile Erection", "setting": "Sprague Dawley rats [9]; intravenous, 10.0 μg/kg", "value": 17, "unit": "%"}, {"measurement": "Number of Erections/Rat/30 Minutes", "setting": "Sprague Dawley rats [9]; intravenous, 10.0 μg/kg", "value": 0.3}, {"measurement": "% Rats with Penile Erection", "setting": "Sprague Dawley rats [9]; intravenous, 100.0 μg/kg", "value": 75, "unit": "%"}, {"measurement": "Number of Erections/Rat/30 Minutes", "setting": "Sprague Dawley rats [9]; intravenous, 100.0 μg/kg", "value": 1.0}, {"measurement": "Optimal efficacious dose intravenously", "setting": "Sprague Dawley rats [9]; rat model of penile erection", "value": "100 μg/kg of body weight"}, {"measurement": "Dose resulting in equivalent penile response by intravenous injection", "setting": "Sprague Dawley rats [9]", "value": "100 μg/kg of body weight"}, {"measurement": "Efficacious dose (penile erection in 100% of animals)", "setting": "Sprague Dawley rats [9]", "value": "≥ 100", "unit": "µg/kg"}]}]}
